Experiments:
Carboplatin = compound: C1CC(C1)(C(=O)[O-])C(=O)[O-].N.N.[Pt+2] [Carboplatin]; conditions: max 10 µM
Summary of the method: (§1)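 Cancer cell lines were dosed for 72 hours (final DMSO typically 0.2%) after 24 hours at 37°C and 5% CO2 in 1536-well plates containing 7.5 μl DMEM/F12 or RPMI with 10% FBS. Viability came from CellTiter-Glo 2.0 luminescence, scaled between blank-well and DMSO-well means, and dose responses were fitted to a two-parameter logistic curve with a non-linear mixed effects model. The single-agent IC50 was obtained from this fit.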

AZD5363 = compound: C1CN(CCC1(C(=O)N[C@@H](CCO)C2=CC=C(C=C2)Cl)N)C3=NC=NC4=C3C=CN4 [AZD5363]; conditions: max 10 µM
Summary of the method: as §1

AZD1775 = compound: C=CCn1c(=O)c2cnc(Nc3ccc(N4CCN(C)CC4)cc3)nc2n1-c1cccc(C(C)(C)O)n1 [AZD1775]; conditions: max 3 µM
Summary of the method: as §1

Trametinib = compound: CC(=O)Nc1cccc(-n2c(=O)n(C3CC3)c(=O)c3c(Nc4ccc(I)cc4F)n(C)c(=O)c(C)c32)c1 [Trametinib]; conditions: max 1 µM
Summary of the method: as §1

Paclitaxel = compound: CC(=O)O[C@H]1C(=O)[C@@]2(C)[C@H]([C@H](OC(=O)c3ccccc3)[C@]3(O)C[C@H](OC(=O)[C@H](O)[C@@H](NC(=O)c4ccccc4)c4ccccc4)C(C)=C1C3(C)C)[C@]1(OC(C)=O)CO[C@@H]1C[C@@H]2O [Paclitaxel]; conditions: max 3 µM
Summary of the method: as §1

Palbociclib = compound: CC(=O)c1c(C)c2cnc(Nc3ccc(N4CCNCC4)cn3)nc2n(C2CCCC2)c1=O [Palbociclib]; conditions: max 10 µM
Summary of the method: as §1

AZD1390 = compound: CC(C)n1c(=O)n(C)c2cnc3cc(F)c(-c4ccc(OCCCN5CCCCC5)nc4)cc3c21 [AZD1390]; conditions: max 0.3 µM
Summary of the method: as §1

Venetoclax = compound: CC1(C)CCC(CN2CCN(c3ccc(C(=O)NS(=O)(=O)c4ccc(NCC5CCOCC5)c([N+](=O)[O-])c4)c(Oc4cnc5[nH]ccc5c4)c3)CC2)=C(c2ccc(Cl)cc2)C1 [Venetoclax]; conditions: max 1 µM
Summary of the method: as §1

Dasatinib = compound: CC1=C(C(=CC=C1)Cl)NC(=O)C2=CN=C(S2)NC3=CC(=NC(=N3)C)N4CCN(CC4)CCO [Dasatinib]; conditions: max 2 µM
Summary of the method: as §1

SG3199 = compound: CC1=CN2[C@@H](C1)C=NC3=CC(=C(C=C3C2=O)OC)OCCCCCOC4=C(C=C5C(=C4)N=C[C@@H]6CC(=CN6C5=O)C)OC [SG3199]; conditions: max 0.001 µM
Summary of the method: as §1

AZD2811 = compound: CCN(CCO)CCCOc1ccc2c(Nc3cc(CC(=O)Nc4cccc(F)c4)[nH]n3)ncnc2c1 [AZD2811]; conditions: max 1 µM
Summary of the method: as §1

SN-38 = compound: CCc1c2c(nc3ccc(O)cc13)-c1cc3c(c(=O)n1C2)COC(=O)[C@]3(O)CC [SN-38]; conditions: max 0.3 µM
Summary of the method: as §1

AZD0156 = compound: CN(C)CCCOc1ccc(-c2ccc3ncc4c(c3c2)n(C2CCOCC2)c(=O)n4C)cn1 [AZD0156]; conditions: max 3 µM
Summary of the method: as §1

AZD4320 = compound: CN(CC[C@H](CSC1=CC=CC=C1)NC2=C(C=C(C=C2)S(=O)(=O)NC(=O)C3=CC=C(C=C3)N4CCC(CC4)[C@H](C5=CC=CC=C5C6=CC=C(C=C6)Cl)O)S(=O)(=O)C(F)(F)F)CCO [AZD4320]; conditions: max 1 µM
Summary of the method: as §1

Alisertib = compound: COc1cc(Nc2ncc3c(n2)-c2ccc(Cl)cc2C(c2c(F)cccc2OC)=NC3)ccc1C(=O)O [Alisertib]; conditions: max 10 µM
Summary of the method: as §1

Etoposide = compound: COc1cc([C@@H]2c3cc4c(cc3[C@@H](O[C@@H]3O[C@@H]5CO[C@@H](C)O[C@H]5[C@H](O)[C@H]3O)[C@H]3COC(=O)[C@H]23)OCO4)cc(OC)c1O [Etoposide]; conditions: max 10 µM
Summary of the method: as §1

Gefitinib = compound: COc1cc2ncnc(Nc3ccc(F)c(Cl)c3)c2cc1OCCCN1CCOCC1 [Gefitinib]; conditions: max 10 µM
Summary of the method: as §1

Prexasertib = compound: COc1cccc(OCCCN)c1-c1cc(Nc2cnc(C#N)cn2)n[nH]1 [Prexasertib]; conditions: max 1 µM
Summary of the method: as §1

Doxorubicin = compound: COc1cccc2c1C(=O)c1c(O)c3c(c(O)c1C2=O)C[C@@](O)(C(=O)CO)C[C@@H]3O[C@H]1C[C@H](N)[C@H](O)[C@H](C)O1 [Doxorubicin]; conditions: max 1 µM
Summary of the method: as §1

AZD5153 = compound: COc1nnc2ccc(N3CCC(c4ccc(OCCN5CCN(C)C(=O)[C@H]5C)cc4)CC3)nn12 [AZD5153]; conditions: max 1 µM
Summary of the method: as §1

Lapatinib = compound: CS(=O)(=O)CCNCc1ccc(-c2ccc3ncnc(Nc4ccc(OCc5cccc(F)c5)c(Cl)c4)c3c2)o1 [Lapatinib]; conditions: max 10 µM
Summary of the method: as §1

AZD8186 = compound: C[C@@H](Nc1cc(F)cc(F)c1)c1cc(C(=O)N(C)C)cc2c(=O)cc(N3CCOCC3)oc12 [AZD8186]; conditions: max 10 µM
Summary of the method: as §1

Crizotinib = compound: C[C@@H](Oc1cc(-c2cnn(C3CCNCC3)c2)cnc1N)c1c(Cl)ccc(F)c1Cl [Crizotinib]; conditions: max 10 µM
Summary of the method: as §1

Savolitinib = compound: C[C@@H](c1ccc2nccn2c1)n1nnc2ncc(-c3cnn(C)c3)nc21 [Savolitinib]; conditions: max 1 µM
Summary of the method: as §1

AZD6738 = compound: C[C@@H]1COCCN1C2=NC(=NC(=C2)C3(CC3)[S@](=N)(=O)C)C4=C5C=CNC5=NC=C4 [AZD6738]; conditions: max 10 µM
Summary of the method: as §1

AZD5991 = compound: Cc1c2c(nn1C)CSCc1cc(n(C)n1)CSc1cc(c3ccccc3c1)OCCCc1c(C(=O)O)n(C)c3c-2c(Cl)ccc13 [AZD5991]; conditions: max 1 µM
Summary of the method: as §1

AZD7648 = compound: Cc1cc2ncnn2cc1Nc1ncc2c(n1)n(C1CCOCC1)c(=O)n2C [AZD7648]; conditions: max 10 µM
Summary of the method: as §1

Taselisib = compound: Cc1nc(-c2cn3c(n2)-c2ccc(-c4cnn(C(C)(C)C(N)=O)c4)cc2OCC3)n(C(C)C)n1 [Taselisib]; conditions: max 10 µM
Summary of the method: as §1

Selumetinib = compound: Cn1cnc2c(F)c(Nc3ccc(Br)cc3Cl)c(C(=O)NOCCO)cc21 [Selumetinib]; conditions: max 10 µM
Summary of the method: as §1

SRA737 = compound: N#Cc1cnc(Nc2cc(NC[C@H]3CNCCO3)c(C(F)(F)F)cn2)cn1 [SRA737]; conditions: max 10 µM
Summary of the method: as §1

MK-2206 = compound: NC1(c2ccc(-c3nc4ccn5c(=O)[nH]nc5c4cc3-c3ccccc3)cc2)CCC1 [MK-2206]; conditions: max 10 µM
Summary of the method: as §1

Gemcitabine = compound: Nc1ccn([C@@H]2O[C@H](CO)[C@@H](O)C2(F)F)c(=O)n1 [Gemcitabine]; conditions: max 0.3 µM
Summary of the method: as §1

[1] = compound: O=C(Nc1ccc2[nH]nc(-c3ccncc3)c2c1)[C@@H]1CCN(CC(=O)N2CCN(c3ccc(-c4ncccn4)cc3)CC2)C1; conditions: max 5 µM
Summary of the method: as §1

Olaparib = compound: O=C(c1cc(Cc2n[nH]c(=O)c3ccccc23)ccc1F)N1CCN(C(=O)C2CC2)CC1 [Olaparib]; conditions: max 10 µM
Summary of the method: as §1

5-Fluorouracil = compound: O=c1[nH]cc(F)c(=O)[nH]1 [5-Fluorouracil]; conditions: max 20 µM
Summary of the method: as §1

Row | Cell Line | IC50, cell viability 72 h (Carboplatin) [nM] | IC50, cell viability 72 h (AZD5363) [nM] | IC50, cell viability 72 h (AZD1775) [nM] | IC50, cell viability 72 h (Trametinib) [nM] | IC50, cell viability 72 h (Paclitaxel) [nM] | IC50, cell viability 72 h (Palbociclib) [nM] | IC50, cell viability 72 h (AZD1390) [nM] | IC50, cell viability 72 h (Venetoclax) [nM] | IC50, cell viability 72 h (Dasatinib) [nM] | IC50, cell viability 72 h (SG3199) [nM] | IC50, cell viability 72 h (AZD2811) [nM] | IC50, cell viability 72 h (SN-38) [nM] | IC50, cell viability 72 h (AZD0156) [nM] | IC50, cell viability 72 h (AZD4320) [nM] | IC50, cell viability 72 h (Alisertib) [nM] | IC50, cell viability 72 h (Etoposide) [nM] | IC50, cell viability 72 h (Gefitinib) [nM] | IC50, cell viability 72 h (Prexasertib) [nM] | IC50, cell viability 72 h (Doxorubicin) [nM] | IC50, cell viability 72 h (AZD5153) [nM] | IC50, cell viability 72 h (Lapatinib) [nM] | IC50, cell viability 72 h (AZD8186) [nM] | IC50, cell viability 72 h (Crizotinib) [nM] | IC50, cell viability 72 h (Savolitinib) [nM] | IC50, cell viability 72 h (AZD6738) [nM] | IC50, cell viability 72 h (AZD5991) [nM] | IC50, cell viability 72 h (AZD7648) [nM] | IC50, cell viability 72 h (Taselisib) [nM] | IC50, cell viability 72 h (Selumetinib) [nM] | IC50, cell viability 72 h (SRA737) [nM] | IC50, cell viability 72 h (MK-2206) [nM] | IC50, cell viability 72 h (Gemcitabine) [nM] | IC50, cell viability 72 h [1] [nM] | IC50, cell viability 72 h (Olaparib) [nM] | IC50, cell viability 72 h (5-Fluorouracil) [nM]
1 | KARPAS-299 (T-Cell Non-Hodgkin's Lymphoma) | > 10000 | > 10000 | 459 | > 1000 | 30.6 | > 10000 | > 300 | 708 | > 2000 | > 1 | > 1000 | 35.7 | > 3000 | > 1000 | > 10000 | 3370 | > 10000 | 5.15 | 523 | 115 | > 10000 | > 10000 | 846 | > 1000 | 698 | 326 | > 10000 | > 10000 | > 10000 | 1130 | > 10000 | 26.6 | > 5000 | > 10000 | 4460
2 | KYSE-450 (Esophageal Squamous Cell Carcinoma) | > 10000 | > 10000 | 614 | > 1000 | 67.7 | > 10000 | > 300 | > 1000 | > 2000 | > 1 | > 1000 | > 300 | > 3000 | > 1000 | > 10000 | > 10000 | > 10000 | 226 | > 1000 | > 1000 | > 10000 | > 10000 | > 10000 | > 1000 | > 10000 | > 1000 | > 10000 | 7520 | > 10000 | > 10000 | > 10000 | > 300 | > 5000 | > 10000 | > 20000

Reference: the supplement of paper PMC11061612
